According to PubChem BioAssay AID330 (DTP/NCI, 2004):
Values joined by “and” are separate entries in the source; they are usually repeats but may differ in a detail not shown here. Identical values can stand only once. Inconclusive results and toxic doses are left out.

Tested on: P388 leukemia ip, CD2F1 mice, survival T/C
Assay: NCI In Vivo Anticancer Drug Screen. Data for tumor model P388 Leukemia (intraperitoneal) in CD2F1 (CDF1) mice
Conditions: endpoint: median survival time, higher = longer survival
In short: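 Mice carrying the transplanted tumor received test compound or vehicle. Survival was recorded in each group, and the value is the treated-group measurement divided by that of the vehicle-treated control group.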

[1] = dose: 7.5 mg/kg/injection, schedule: Q01DX005 (ip), vehicle: saline with Tween-80
[2] = dose: 15.0 mg/kg/injection, schedule: Q01DX005 (ip), vehicle: saline with Tween-80
[3] = dose: 30.0 mg/kg/injection, schedule: Q01DX005 (ip), vehicle: saline with Tween-80
[4] = dose: 60.0 mg/kg/injection, schedule: Q01DX005 (ip), vehicle: saline with Tween-80
[5] = dose: 50.0 mg/kg/injection, schedule: Q01DX009 (ip), vehicle: saline
[6] = dose: 50.0 mg/kg/injection, schedule: Q01DX005 (ip), vehicle: distilled water + Tween-80
[7] = dose: 100.0 mg/kg/injection, schedule: Q01DX005 (ip), vehicle: distilled water + Tween-80
[8] = dose: 25.0 mg/kg/injection, schedule: Q01DX009 (ip), vehicle: saline
[9] = dose: 100.0 mg/kg/injection, schedule: Q01DX009 (ip), vehicle: saline

Question: O=S(=O)(CCCCl)SCCCCl was tested. Which T/C [1] did it give?
Answer: 104 % of control

Question: What about the T/C [2] of the same compound?
Answer: 105 % of control

Question: And the T/C [3]?
Answer: 103 % of control and 105 % of control

Question: What about the T/C [4] of the same compound?
Answer: 96 % of control

Question: With c1cc2ccc3ccc[n+]4c3c2[n+](c1)CC4 as the compound, how does the T/C [5] read?
Answer: 103 % of control

Question: How did the T/C [6] turn out when CCOc1cc2c(cc1C(C)c1ccc(O)c(OC)c1)OCO2 (stereo unspecified) was run?
Answer: 99 % of control

Question: What about the T/C [7] of the same compound?
Answer: 101 % of control

Question: And the T/C (dose: 200.0 mg/kg/injection, schedule: Q01DX005 (ip), vehicle: distilled water + Tween-80)?
Answer: 104 % of control

Question: What does the source list for COC(=O)C(C)NC(=O)C(C)NC(=O)c1ccc(OC)cc1 (stereo unspecified)?
Answer: T/C (dose: 100.0 mg/kg/injection, schedule: Q04DX002 (ip), vehicle: saline with Tween-80): 105 % of control; T/C (dose: 200.0 mg/kg/injection, schedule: Q04DX002 (ip), vehicle: saline with Tween-80): 99 % of control; T/C (dose: 400.0 mg/kg/injection, schedule: Q04DX002 (ip), vehicle: saline with Tween-80): 91 % of control

Question: Which T/C (dose: 3.75 mg/kg/injection, schedule: Q01DX009 (ip), vehicle: saline) does the source give for CC(C)n1ncc2c(N)ncnc21 here?
Answer: 100 % of control

Question: What about the T/C (dose: 7.5 mg/kg/injection, schedule: Q01DX009 (ip), vehicle: saline) of the same compound?
Answer: 95 % of control

Question: What about the T/C (dose: 15.0 mg/kg/injection, schedule: Q01DX009 (ip), vehicle: saline) of the same compound?
Answer: 104 % of control and 95 % of control

Question: Which T/C (dose: 100.0 mg/kg/injection, schedule: Q01DX009 (ip), vehicle: saline with Tween-80) does the source give for Cc1ccc2c(c1)Sc1ccc3ccccc3c1N2 here?
Answer: 100 % of control

Question: What about the T/C (dose: 100.0 mg/kg/injection, schedule: Q04DX003 (ip), vehicle: saline with Tween-80) of the same compound?
Answer: 90 % of control

Question: What about the T/C (dose: 200.0 mg/kg/injection, schedule: Q01DX009 (ip), vehicle: saline with Tween-80) of the same compound?
Answer: 109 % of control

Question: And the T/C (dose: 200.0 mg/kg/injection, schedule: Q04DX003 (ip), vehicle: saline with Tween-80)?
Answer: 100 % of control

Question: What about the T/C (dose: 400.0 mg/kg/injection, schedule: Q01DX009 (ip), vehicle: saline with Tween-80) of the same compound?
Answer: 113 % of control

Question: And the T/C (dose: 400.0 mg/kg/injection, schedule: Q04DX003 (ip), vehicle: saline with Tween-80)?
Answer: 100 % of control

Question: With O=C1C=CC(=O)C=C1 as the compound, how does the T/C (dose: 3.12 mg/kg/injection, schedule: Q04DX003 (ip), vehicle: saline with Tween-80) read?
Answer: 101 % of control

Question: What about the T/C (dose: 6.25 mg/kg/injection, schedule: Q04DX003 (ip), vehicle: saline with Tween-80) of the same compound?
Answer: 99 % of control

Question: Which results are given for CS(=O)(=O)CS(=O)(=O)OCCCl?
Answer: T/C (dose: 6.25 mg/kg/injection, schedule: Q01DX005 (ip), vehicle: dextrose): 109 % of control; T/C (dose: 6.25 mg/kg/injection, schedule: Q01DX005 (ip), vehicle: distilled water + Tween-80): 114 % of control; T/C (dose: 6.25 mg/kg/injection, schedule: Q01DX005 (iv), vehicle: dextrose): 109 % of control; T/C (dose: 10.0 mg/kg/injection, schedule: Q01DX005 (ip), vehicle: saline): 121 % of control; T/C (dose: 12.5 mg/kg/injection, schedule: Q01DX005 (iv), vehicle: dextrose): 118 % of control; T/C (dose: 22.0 mg/kg/injection, schedule: Q01DX005 (ip), vehicle: saline): 166 % of control; T/C (dose: 25.0 mg/kg/injection, schedule: Q01DX005 (ip), vehicle: dextrose): 154 % of control; T/C (dose: 33.0 mg/kg/injection, schedule: Q01DX005 (ip), vehicle: other): 230 % of control; T/C (dose: 33.0 mg/kg/injection, schedule: Q01DX005 (ip), vehicle: saline): 198 % of control; T/C (dose: 33.0 mg/kg/injection, schedule: Q01DX005 (ip), vehicle: water): 201 % of control; T/C (dose: 33.5 mg/kg/injection, schedule: Q01DX005 (ip), vehicle: saline): 209 % of control; T/C (dose: 50.0 mg/kg/injection, schedule: Q01DX005 (ip), vehicle: dextrose): 241 % of control and 330 % of control; T/C [6]: 250 % of control; T/C (dose: 50.0 mg/kg/injection, schedule: Q01DX005 (ip), vehicle: other): 588 % of control; T/C (dose: 50.0 mg/kg/injection, schedule: Q01DX005 (ip), vehicle: saline): 245 % of control and 267 % of control; T/C (dose: 50.0 mg/kg/injection, schedule: Q01DX005 (ip), vehicle: water): 254 % of control and 285 % of control; T/C (dose: 50.0 mg/kg/injection, schedule: Q01DX005 (iv), vehicle: dextrose): 196 % of control; T/C (dose: 75.0 mg/kg/injection, schedule: Q01DX005 (ip), vehicle: dextrose): 582 % of control; T/C (dose: 75.0 mg/kg/injection, schedule: Q01DX005 (ip), vehicle: other): 588 % of control; T/C (dose: 75.0 mg/kg/injection, schedule: Q01DX005 (ip), vehicle: saline): 156 % of control; T/C (dose: 75.0 mg/kg/injection, schedule: Q01DX005 (ip), vehicle: water): 294 % of control; T/C (dose: 100.0 mg/kg/injection, schedule: Q01DX005 (ip), vehicle: dextrose): 535 % of control; T/C [7]: 535 % of control; T/C (dose: 100.0 mg/kg/injection, schedule: Q01DX005 (ip), vehicle: other): 588 % of control; T/C (dose: 100.0 mg/kg/injection, schedule: Q01DX005 (ip), vehicle: saline): 151 % of control and 200 % of control; T/C (dose: 100.0 mg/kg/injection, schedule: Q01DX005 (ip), vehicle: water): 294 % of control

Question: O=C(N/N=C\c1ccc(N(CCCl)CCCl)cc1)c1cccnc1 was tested. Which T/C (dose: 12.5 mg/kg/injection, schedule: Q01DX009 (ip), vehicle: Klucel (hydroxypropylcellulose) (HPC)) did it give?
Answer: 107 % of control

Question: What about the T/C (dose: 25.0 mg/kg/injection, schedule: Q01DX009 (ip), vehicle: Klucel (hydroxypropylcellulose) (HPC)) of the same compound?
Answer: 107 % of control

Question: Which T/C [8] does the source give for O=C(O)CCCC(=O)c1ccccc1 here?
Answer: 105 % of control

Question: What about the T/C [5] of the same compound?
Answer: 100 % of control

Question: What about the T/C [9] of the same compound?
Answer: 101 % of control

Question: And the T/C (dose: 200.0 mg/kg/injection, schedule: Q01DX009 (ip), vehicle: saline)?
Answer: 108 % of control

Question: Which T/C [4] does the source give for Cc1ccc(-n2cc(-c3ccc(Cl)cc3)c3c(N)ncnc32)cc1 here?
Answer: 105 % of control

Question: And the T/C (dose: 120.0 mg/kg/injection, schedule: Q01DX005 (ip), vehicle: saline with Tween-80)?
Answer: 104 % of control

Question: And the T/C (dose: 240.0 mg/kg/injection, schedule: Q01DX005 (ip), vehicle: saline with Tween-80)?
Answer: 88 % of control

Question: Which results are given for COc1cccc(-c2cc(C(=O)O)c3cc4ccccc4cc3n2)c1OC?
Answer: T/C (dose: 50.0 mg/kg/injection, schedule: Q01DX009 (ip), vehicle: Klucel (hydroxypropylcellulose) (HPC)): 100 % of control; T/C (dose: 100.0 mg/kg/injection, schedule: Q01DX009 (ip), vehicle: Klucel (hydroxypropylcellulose) (HPC)): 101 % of control; T/C (dose: 200.0 mg/kg/injection, schedule: Q01DX009 (ip), vehicle: Klucel (hydroxypropylcellulose) (HPC)): 100 % of control

Question: With CNC(=S)NCOCCOC(C)=O as the compound, how does the T/C (dose: 60.0 mg/kg/injection, schedule: Q01DX005 (ip), vehicle: saline) read?
Answer: 98 % of control

Question: And the T/C (dose: 120.0 mg/kg/injection, schedule: Q01DX005 (ip), vehicle: saline)?
Answer: 102 % of control

Question: And the T/C (dose: 240.0 mg/kg/injection, schedule: Q01DX005 (ip), vehicle: saline)?
Answer: 102 % of control

Question: What does the source list for COc1ccc(/C=C/c2ccnnc2)c(OC)c1OC?
Answer: T/C [8]: 102 % of control; T/C [5]: 102 % of control; T/C [9]: 105 % of control

Question: COc1ccc2nc3cc(Cl)ccc3c(NCCCC3CCCN4CCCCC34)c2c1 (stereo unspecified) was tested. Which T/C [1] did it give?
Answer: 108 % of control

Question: What about the T/C [2] of the same compound?
Answer: 108 % of control

Question: What about the T/C [3] of the same compound?
Answer: 111 % of control

Question: What does the source list for CC1(C)CC(=O)C(C(=O)c2ccccc2)=[N+]1[O-]?
Answer: T/C (dose: 50.0 mg/kg/injection, schedule: Q01DX005 (ip), vehicle: Klucel (hydroxypropylcellulose) (HPC)): 97 % of control; T/C (dose: 100.0 mg/kg/injection, schedule: Q01DX005 (ip), vehicle: Klucel (hydroxypropylcellulose) (HPC)): 100 % of control; T/C (dose: 200.0 mg/kg/injection, schedule: Q01DX005 (ip), vehicle: Klucel (hydroxypropylcellulose) (HPC)): 99 % of control

Question: For Cn1c(Cl)c(/C=N\Nc2ccccc2[N+](=O)[O-])c2ccccc21, which T/C (dose: 25.0 mg/kg/injection, schedule: Q01DX001 (ip), vehicle: Klucel (hydroxypropylcellulose) (HPC)) is on record?
Answer: 90 % of control

Question: What about the T/C (dose: 50.0 mg/kg/injection, schedule: Q01DX001 (ip), vehicle: Klucel (hydroxypropylcellulose) (HPC)) of the same compound?
Answer: 87 % of control and 89 % of control

Question: And the T/C (dose: 100.0 mg/kg/injection, schedule: Q01DX001 (ip), vehicle: Klucel (hydroxypropylcellulose) (HPC))?
Answer: 86 % of control and 90 % of control

Question: And the T/C (dose: 200.0 mg/kg/injection, schedule: Q01DX001 (ip), vehicle: Klucel (hydroxypropylcellulose) (HPC))?
Answer: 87 % of control and 88 % of control
